Structures can show the parent of a compound that is named as a salt.
Assays:
Obese (ob/ob) mouse = assay: In vivo assay of reduction of food intake

In the case of `CN1CCCN(c2ccc(S(=O)(=O)Nc3ccccc3)cc2N)CC1` (as salt: hydrochloride) [Example 92, 3-Amino-4-(4-methyl-1,4-diazepan-1-yl)-N-phenylbenzenesulfonamide], the melting point is reported as 84 to 85 °C.
In the case of `Cl.O=S(=O)(Nc1ccc(N2CCCNCC2)cc1NS(=O)(=O)c1ccccc1)c1ccccc1` [Example 27, N-{4-(homopiperazinyl)-2-[(phenylsulfonyl)amino]phenyl}benzenesulfonamide hydrochloride], the “Reduction of Food Intake (%) po administration” value (Obese (ob/ob) mouse; Dose 50 mg/Kg) is reported as 28%.
In the case of `CCN(c1cc(N2CCCNCC2)ccc1NS(=O)(=O)c1ccccc1)S(=O)(=O)c1ccccc1.Cl` [Example 29, N-{4-(1,4-diazepan-1-yl)-2-[ethyl(phenylsulfonyl)amino]phenyl}benzenesulfonamide hydrochloride], the “Reduction of Food Intake (%) po administration” value (Obese (ob/ob) mouse; Dose 100 mg/Kg) is reported as 60%.
